This passage reports IC50 results from patent US20240383852A1, “ANTI-VIRAL COMPOUNDS” (INFEX Therapeutics Limited, priority 2021, published 2024).

Where a name gives a salt, the structure may show the parent alone.

One test deals with T1, SARS-CoV-2 PLpro (Severe acute respiratory syndrome coronavirus 2, UniProt P0DTD1).
T1 construct: containing 60 nM papain-like protease
Put plainly: biochemical.
Conditions: not given
One may read the IC50 as the point on the concentration scale where inhibition reaches its midpoint. For the compound `COc1ccc([C@@H](C)NC(=O)c2cc(N3[C@@H]4CC[C@H]3CN(C)C4)ccc2C)cc1OC` [Example 10, N-[(1R)-1-(3,4-Dimethoxyphenyl)ethyl]-2-methyl-5-[(1S,5R)-3-methyl-3,8-diazabicyclo[3.2.1]octan-8-yl]benzamide], the half-maximal inhibitory concentration (IC50) was under 100 µM.

Staying with this test, now noted: 60 nM papain-like protease, 50 μM Z-RLRGG-AMC, pH 7.5, 37° C.; read-out: SARS-CoV-2 PLpro IC50.
`C[C@@H](NC(=O)c1ccnc(N2CCN(CCO)CC2)n1)c1cccc2ccccc12` [Example 317, 2-[4-(2-Hydroxyethyl)piperazin-1-yl]-N-[(1R)-1-(1-naphthyl)ethyl]pyrimidine-4-carboxamide hydrochloride salt]: the IC50 is over 100 µM.
On the same count and under the same terms, in the case of `Cc1ccc(N2CCN(C)CC2)cc1C(=O)N[C@H](C)c1cccc2c1OCCO2` [Example 183, N-[(1R)-1-(2,3-Dihydro-1,4-benzodioxin-5-yl)ethyl]-2-methyl-5-(4-methylpiperazin-1-yl)benzamide] it was under 20 µM.
As to `Cc1ccc(-c2cn[nH]c2)cc1C(=O)N[C@H](C)c1cccc2ccccc12` [Example 153, 2-Methyl-N-[(1R)-1-(1-naphthyl)ethyl]-5-(1H-pyrazol-4-yl)benzamide], the IC50 was under 20 µM.
The same measure, in the same setting: the value for `C[C@@H](NC(=O)c1cc(C2CCNC2)cn1C)c1cccc2ccccc12` (stereo partly drawn) [Example 150, 1-Methyl-N-[(1R)-1-(1-naphthyl)ethyl]-4-pyrrolidin-3-yl-pyrrole-2-carboxamide] was under 100 µM; that for `Cc1ccc(N2CCN(C)CC2)cc1C(=O)N[C@H](C)c1cccs1` [Example 191, 2-Methyl-5-(4-methylpiperazin-1-yl)-N-[(1R)-1-(2-thienyl)ethyl]benzamide hydrochloride salt] was under 100 µM; that for `C[C@@H](NC(=O)c1cccc(C2CCN(CCC(=O)O)CC2)c1)c1cccc2ccccc12` [Example 164, 3-[4-[3-[[(1R)-1-(1-Naphthyl)ethyl]carbamoyl]phenyl]-1-piperidyl]propanoic acid] was under 100 µM.
Regarding `Cc1ccc(N2CCN(C)CC2)cc1C(=O)N[C@H](C)c1cccc(-c2cccc(C(=O)O)c2)c1` [Example 83, 3-[3-[(1R)-1-[[2-Methyl-5-(4-methylpiperazin-1-yl)benzoyl]amino]ethyl]phenyl]benzoic Acid], the IC50 was under 5 µM.
For `C[C@@H](NC(=O)c1cccc(C2CCN(CCS(=O)(=O)c3ccccc3)CC2)c1)c1cccc2ccccc12` [Example 175, 3-[1-[2-(Benzenesulfonyl)ethyl]-4-piperidyl]-N-[(1R)-1-(1-naphthyl)ethyl]benzamide], the IC50 is over 100 µM.
Same read-out and setting: in the case of `C[C@@H](NC(=O)c1cc(-c2ccncc2)cn1C)c1cccc2ccccc12` [Example 148, 1-Methyl-N-[(1R)-1-(1-naphthyl)ethyl]-4-(4-pyridyl)pyrrole-2-carboxamide] it was over 100 µM; in that of `Cc1ccc(N2CCN(C)CC2)cc1C(=O)N[C@H](C)c1cnn(C)c1` [Example 127, 2-Methyl-5-(4-methylpiperazin-1-yl)-N-[(1R)-1-(1-methylpyrazol-4-yl)ethyl]benzamide], under 100 µM; in that of `COc1c(Br)cccc1[C@@H](C)NC(=O)c1cc(N2CCN(C)CC2)ccc1C` [Example 194, N-[(1R)-1-(3-Bromo-2-methoxy-phenyl)ethyl]-2-methyl-5-(4-methylpiperazin-1-yl)benzamide], under 100 µM.
The same measure, in the same setting: in the case of `Cc1ccc(N2CCN(C)CC2)cc1C(=O)N[C@H](C)c1cc(Cl)cc(-c2cnn(C)c2)c1` [Example 257, N-[(1R)-1-[3-Chloro-5-(1-methylpyrazol-4-yl)phenyl]ethyl]-2-methyl-5-(4-methylpiperazin-1-yl)benzamide] it was under 2 µM; in that of `C[C@@H](NC(=O)c1cccc(C(=O)NCCN(C)C)c1)c1cccc2ccccc12` [Example 174, N1-[2-(Dimethylamino)ethyl]-N3-[(1R)-1-(1-naphthyl)ethyl]benzene-1,3-dicarboxamide], under 100 µM; in that of `COc1cc(-c2cn(C)nc2C)cc([C@@H](C)NC(=O)c2cc(C3CCNCC3)ccc2C)c1` [Example 304, N-[(1R)-1-[3-(1,3-Dimethylpyrazol-4-yl)-5-methoxy-phenyl]ethyl]-2-methyl-5-(4-piperidyl)benzamide], under 2 µM.
`COc1ccc([C@@H](C)NC(=O)c2cc(N3CC4(CNC4)C3)ccc2C)cc1OC` [Example 37, 5-(2,6-Diazaspiro[3.3]heptan-2-yl)-N-[(1R)-1-(3,4-dimethoxyphenyl)ethyl]-2-methyl-benzamide]: the concentration for half-maximal inhibition (IC50) was under 20 µM.
Same read-out and setting: the value for `C[C@@H](NC(=O)c1cc(N2CCN(C)CC2)ccn1)c1cccc2ccccc12` [Example 14, 4-(4-Methylpiperazin-1-yl)-N-[(1R)-1-(1-naphthyl)ethyl]pyridine-2-carboxamide] was over 100 µM; that for `Cc1ccc(-c2ccnc(N3CCN(CCC(=O)O)CC3)c2)cc1C(=O)N[C@H](C)c1cccc2ccccc12` [Example 169, 3-[4-[4-[4-Methyl-3-[[(1R)-1-(1-naphthyl)ethyl]carbamoyl]phenyl]-2-pyridyl]piperazin-1-yl]propanoic acid] was under 20 µM; that for `CC(=O)N1CCC(c2cccc(C(=O)N[C@H](C)c3cccc4ccccc34)c2)CC1` [Example 7, 3-(1-Acetyl-4-piperidyl)-N-[(1R)-1-(1-naphthyl)ethyl]benzamide] was over 100 µM.
The same measure, in the same setting: in the case of `C[C@@H](NC(=O)c1cncc(N2CCN(C)CC2)n1)c1cccc2ccccc12` [Example 320, 6-(4-Methylpiperazin-1-yl)-N-[(1R)-1-(1-naphthyl)ethyl]pyrazine-2-carboxamide Hydrochloride Salt] it was under 100 µM; in that of `C[C@@H](NC(=O)c1ccnc(N2CCN(C)CC2)n1)c1cccc2ccccc12` [Example 316, 2-(4-Methylpiperazin-1-yl)-N-[(1R)-1-(1-naphthyl)ethyl]pyrimidine-4-carboxamide Hydrochloride Salt], under 100 µM.
Same read-out and setting: the value for `C[C@@H](NC(=O)c1cc(N2CCN(CC(F)(F)F)CC2)ccc1Cl)c1cccc2ccccc12` [Example 131, 2-Chloro-N-[(1R)-1-(1-naphthyl)ethyl]-5-[4-(2,2,2-trifluoroethyl)piperazin-1-yl]benzamide] was over 100 µM; that for `C[C@@H](NC(=O)c1ccnc(N2CC[C@@H](N)C2)n1)c1cccc2ccccc12` [Example 319, 2-[(3R)-3-Aminopyrrolidin-1-yl]-N-[(1R)-1-(1-naphthyl)ethyl]pyrimidine-4-carboxamide Hydrochloride Salt] was over 100 µM; that for `Cc1ccc(N2CCN(C)CC2)cc1C(=O)N[C@H](C)c1cccc(C(=O)NCCO)c1` [Example 313, N-[(1R)-1-[3-(2-Hydroxyethylcarbamoyl)phenyl]ethyl]-2-methyl-5-(4-methylpiperazin-1-yl)benzamide] was under 20 µM.
Consider `C[C@@H](NC(=O)c1cc(C2=CCNC2)cn1C)c1cccc2ccccc12` [Example 149, 4-(2,5-Dihydro-1H-pyrrol-3-yl)-1-methyl-N-[(1R)-1-(1-naphthyl)ethyl]pyrrole-2-carboxamide Hydrochloride Salt], for which the IC50 was under 100 µM.
For `Cc1ccc(N2CCN(CC(=O)O)CC2)cc1C(=O)N[C@H](C)c1cccc2ccccc12` [Example 171, 2-[4-[4-Methyl-3-[[(1R)-1-(1-naphthyl)ethyl]carbamoyl]phenyl]piperazin-1-yl]acetic Acid], the IC50 is under 2 µM.
With `Cc1ccc(N2CCN(C)CC2)cc1C(=O)N[C@H](C)c1cccc(CCC(=O)N(C)C)c1` [Example 84, N-[(1R)-1-[3-[3-(Dimethylamino)-3-oxo-propyl]phenyl]ethyl]-2-methyl-5-(4-methylpiperazin-1-yl)benzamide], the IC50 was under 20 µM.
On the same count and under the same terms, the value for `CNCCN(C)C(=O)c1cccc([C@@H](C)NC(=O)c2cc(N3CCN(C)CC3)ccc2C)c1` [Example 314, 2-Methyl-N-[(1R)-1-[3-[methyl-[2-(methylamino)ethyl]carbamoyl]phenyl]ethyl]-5-(4-methylpiperazin-1-yl)benzamide Dihydrochloride Salt] was under 20 µM; that for `C[C@@H](NC(=O)c1cc(-c2ccccc2)ccn1)c1cccc2ccccc12` [Example 3, N-[(1R)-1-(1-Naphthyl)ethyl]-4-phenyl-pyridine-2-carboxamide] was over 100 µM.
On the same count and under the same terms, the value for `Cc1ccc(N2CCN(C)CC2)cc1C(=O)N[C@H](C)c1cc(OC(C)C)cc(-c2cnn(C)c2)c1` [Example 279, N-[(1R)-1-[3-Isopropoxy-5-(1-methylpyrazol-4-yl)phenyl]ethyl]-2-methyl-5-(4-methylpiperazin-1-yl)benzamide] was under 2 µM; that for `Cc1ccc(N2CCN(C(=O)OC(C)(C)C)CC2)cc1C(=O)N[C@H](C)c1cccc2ccccc12` [Example 28, tert-Butyl 4-[4-methyl-3-[(1R)-1-(1-naphthyl)ethyl]carbamoyl]phenyl]piperazine-1-carboxylate] was under 100 µM; that for `Cc1ccc(-c2cccc(S(=O)(=O)N3CCNCC3)c2)cc1C(=O)N[C@H](C)c1cccc2ccccc12` [Example 152, 2-Methyl-N-[(1R)-1-(1-naphthyl)ethyl]-5-(3-piperazin-1-ylsulfonylphenyl)benzamide] was under 100 µM.
With `Cc1ccc(N2CCN(C)CC2)cc1C(=O)N[C@H](C)c1cccc(S(C)(=O)=O)c1` [Example 38, 2-Methyl-5-(4-methylpiperazin-1-yl)-N-[(1R)-1-(3-methylsulfonylphenyl)ethyl] benzamide], the concentration for half-maximal inhibition (IC50) was under 20 µM.
As to `Cc1ccc(N2CCN(S(C)(=O)=O)CC2)cc1C(=O)N[C@H](C)c1cccc2ccccc12` [Example 110, 2-Methyl-5-(4-methylsulfonylpiperazin-1-yl)-N-[(1R)-1-(1-naphthyl)ethyl]benzamide], the half-inhibitory concentration (IC50) was over 100 µM.
For the compound `Cc1ccc(N2CCN(C)CC2)cc1C(=O)N[C@H](C)c1cc(OCCO)cc(-c2cnn(C)c2)c1` [Example 281, N-[(1R)-1-[3-(2-Hydroxyethoxy)-5-(1-methylpyrazol-4-yl)phenyl]ethyl]-2-methyl-5-(4-methylpiperazin-1-yl)benzamide], the IC50 is under 2 µM.
The same measure, in the same setting: in the case of `C[C@@H](NC(=O)c1cccc(N2CCCCC2)c1)c1cccc2ccccc12` [Example 1, N-[(1R)-1-(1-naphthyl)ethyl]-3-(1-piperidyl)benzamide] it was over 100 µM.
